Measurements published in patent publication US20120203161A1, “DEUTERATED WATER AND RIBOFLAVIN SOLUTION FOR EXTENDING SINGLET OXYGEN LIFETIMES IN TREATMENT OF OCULAR TISSUE AND METHOD OF USE” (SEROS MEDICAL, LLC, priority 2009, published 2012).

Tested on: endothelial cell

## [2H]O[2H] [deuterated water, deuterium oxide]
  endothelial cell apoptosis: does not induce endothelial cell apoptosis
